We go through six molecules from patent EP0265400A2, “Topical radioprotective gel for mucosa” (priority 1986, dated 1988).

“And” between values parts separate entries of the source, which are not always exact repeats. Equal values may be shown once. “Also recorded” adds a separate entry of the source. Positions of bridges follow the written chain, without caps; N, C: chain ends. Residues, ends and D or L forms follow the SMILES beside them.

The test system of data set [1] is Irradiation-induced lesions in the mucosa. In words: Radioprotective effect of rectally applied gel on irradiated rectal mucosa: histological grading and body weight. Type of data set: in vivo, Wistar rats. Particulars: for Body weight change / Change of glandular structure / Fibrosis / Ulceration - abscessa development in crypts / Sum of parameters: one value per rat; for Sum of parameters: histological grading. As for the experimental part:
For studies of the radioprotective effect of TGLVP Wistar rats (body weight 187-394 g) were used and treated in pairs at the same time. In each pair, one rat was treated rectally with TGLVP, while the other rat, the control rat, was given CMC solution rectally. The gels were applied in the same manner as described above. For anaesthesia, nembutal was given intraperitoneally. The rats were irradiated with 240 kV X-rays (0.2 Cu filtration), using AP and PA fields in size 4 × 3 cm. This gave a uniform dose in the lower part of the abdomen corresponding to the position of the rectum. 10 Gy were given on day 1, and 10 Gy on day 4. The rats were killed 14 days after the treatment, and the rectum was removed for histological analysis. The rats were weighed before treatment and when they were killed. 10 rats were treated with 1600 µg TGLVP 15 min before irradiation (Tables IV and V) 5 rats were treated with 800 µg TGLVP 15 min before irradiation (Table V) 10 rats were given 1600 µg TGLVP 30 min before treatment (Table III) 5 rats were given 3200 µg TGLVP 15 min before treatment (Table I) 5 rats were given 3200 µg TGLVP 30 min before treatment (Table II)
Histological grading (sum of parameters) was performed in accordance with an evaluation system in which 0 is the normal structure and 6 indicates maximum change. Irradiation-induced lesions in the mucosa were determined arbitrarily by means of the following parameters: • 1: The extent of fibrosis in the mucosa and submucosa. • 2: The change of glandular structure in the mucosa. • 3: Ulcerations in the mucosa or abscesses in mucosal crypts.

A short description of data set [2]: Studies of systemic circulation (dose titration) after rectal application of the gel: arterial pressure and pulse rate. Type of data set: in vivo, Wistar rats. As for the experimental part: The concentration of vasoconstrictive substance in the radioprotective gels according to the invention was determined according to the desire to provide a local vasoconstrictive effect (with subsequent hypoxia) in the mucosa, but without general secondary effect, such as blood pressure increase and bradycardia. To achieve this, dose titration studies of the different vasoconstrictive substances were carried out, i.e. the dose just below the threshold of general circulatory response was defined. Due to interaction (electrostatic binding) between the active substance and the different thickening agents, the dose for a specific vasoconstrictive substance varied depending upon the thickening agent employed.
For studies of systematic circulation, Wistar rats (body weight 177-296 g) were used. TGLVP was administered rectally by means of a Nelaton-Foley catheter inserted through the anus until the balloon was 5 cm away from the anus. The balloon was then filled to ensure that the catheter stayed in position and to prevent TGLVP from reaching the upper parts of the bowel. TGLVP was dissolved in a 1% by weight aqueous solution of sodium carboxymethyl cellulose (CMC) and was in contact with all parts of the mucosa during the test. The volume applied amounted to half a milliliter. Three dose levels of TGLVP were tested, i.e. 800 µg, 1600 µg and 3200 µg. For each dose level, use was made of five rats and a corresponding number of controls which were given CMC solution only. For anaesthesia, nembutal was used intraperitoneally. Mean values for arterial pressure and puls rate were recorded by means of a catheter in the aorta via the femoral artery.
Dose titration was carried out in a similar manner on AVP, LVP, TGLVP with other thickening agents, Angiotensin II and norepinephrine.

Where [3] appears, read: TGLVP 3200 µg/g in 1 weight% carboxymethyl cellulose, dose 1600 µg, 30 min before irradiation.
The mark [4] stands for this setting: TGLVP 3200 µg/g in 1 weight% carboxymethyl cellulose, dose 1600 µg, 30 min before irradiation, grade 0-6.
[5] abbreviates: TGLVP 6400 µg/g in 1 weight% carboxymethyl cellulose, dose 3200 µg, 15 min before irradiation, grade 0-6.
Setting [6] is: TGLVP 6400 µg/g in 1 weight% carboxymethyl cellulose, dose 3200 µg, 30 min before irradiation.
Where [7] appears, read: TGLVP 6400 µg/g in 1 weight% carboxymethyl cellulose, dose 3200 µg, 30 min before irradiation, grade 0-6.

For lysine-vasopressin [LVP], the “function of the gel in radioprotective experiments” value (shortened to “function of the gel”) in data set [1] (32 µg per g of 1.2% by weight hydroxyethyl cellulose in sterile deionised water) is recorded as “found to function as intended”. Also, the “radioprotection to the mucosa” value in data set [1] (dose of 16 µg, irradiation 15 min after administration, Table VII) was “gave radioprotection to the mucosa”. In addition, the “changes in systemic circulation” value was “without significant changes in systemic circulation” in data set [2] (4 µg in 1.2% by weight hydroxyethyl cellulose solution), “without significant changes in systemic circulation” in data set [2] (8 µg in 1.2% by weight hydroxyethyl cellulose solution) and “without significant changes in systemic circulation; also recorded: caused no significant change in systemic circulation” in data set [2] (16 µg in 1.2% by weight hydroxyethyl cellulose solution). Also, the “change in blood pressure” value in data set [2] (10 µg in 0.2% by weight carboxypolymethylene solution, pulse rate not measured) is recorded as “without any significant change in blood pressure”; in data set [2] (10 µg in 1% by weight sodiumcarboxymethyl cellulose (CMC) solution, pulse rate not measured), “without any change in blood pressure”; in data set [2] (20 µg in 0.2% by weight carboxypolymethylene solution, pulse rate not measured) it was “without any significant change in blood pressure”; in data set [2] (20 µg in 1% by weight sodiumcarboxymethyl cellulose (CMC) solution, pulse rate not measured) it was “without any change in blood pressure”; in data set [2] (40 µg in 0.2% by weight carboxypolymethylene solution, significant at 10, 15, 20, 25, 45 and 60 minutes after application) it was “gave a rise in blood pressure”; in data set [2] (40 µg in 1% by weight sodiumcarboxymethyl cellulose (CMC) solution, pulse rate not measured), “without any change in blood pressure”. In addition, the “change in blood pressure” value is “gave a rise in blood pressure” in data set [2] (80 µg in 0.2% by weight carboxypolymethylene solution, significant 5-60 minutes after application) and “caused a rise in blood pressure” in data set [2] (80 µg in 1% by weight sodiumcarboxymethyl cellulose (CMC) solution, 5-45 minutes after application). In data set [2] (32 µg in 1.2% by weight hydroxyethyl cellulose solution), the pulse rate entry is listed as “No decrease in pulse rate was noted”. Moreover, the blood pressure result in data set [2] (32 µg in 1.2% by weight hydroxyethyl cellulose solution, 5, 10, 15, 20, 25, 30, 45, 75 and 90 minutes after application) was “caused a rise in blood pressure”.

For `NCCCC[C@H](NC(=O)[C@@H]1CCCN1C(=O)[C@@H]1CSSC[C@H](NC(=O)CNC(=O)CNC(=O)CN)C(=O)N[C@@H](Cc2ccc(O)cc2)C(=O)N[C@@H](Cc2ccccc2)C(=O)N[C@@H](CCC(N)=O)C(=O)N[C@@H](CC(N)=O)C(=O)N1)C(=O)NCC(N)=O` [TGLVP, triglycyl-lysine-vasopressin] (H-GGGCYFQNCPKG-NH2; disulfide 4-9), in data set [1] (1600-6400 µg per g of 1% by weight carboxymethyl cellulose in sterile deionised water), the “function of the gel” value is listed as “found to function as intended”. Moreover, the “Body weight change” value in data set [1] (setting [3]) is 14 g and 3 g and 18 g and 7 g and 5 g; in data set [1] (TGLVP 6400 µg/g in 1 weight% carboxymethyl cellulose, dose 3200 µg, 15 min before irradiation, before treatment vs when killed), 9 g and 4 g and 7 g and 15 g and 12 g; in data set [1] (setting [6]), 24 g and 7 g and 13 g and -2 g and 38 g. In addition, the “Change of glandular structure” value was 2 (4×) and 4 in data set [1] (setting [4]); 4 and 2 (2×) and 0 (2×) in data set [1] (setting [5]); 0 (2×) and 4 and 2 (2×) in data set [1] (setting [7]). For the same molecule, the Fibrosis in data set [1] (setting [4]) was 4 (4×) and 2; in data set [1] (TGLVP 6400 µg/g in 1 weight% carboxymethyl cellulose, dose 3200 µg rectally 15 min before irradiation (10 Gy day 1 and day 4), grade 0 normal, 6 maximum change, killed 14 days after treatment) it was 4 and 2 (4×); in data set [1] (setting [7]), 4. The “Ulceration - abscessa development in crypts” value in data set [1] (setting [4]) is 0 (3×) and 2 (2×); in data set [1] (setting [5]), 4 and 2 and 0 (3×); in data set [1] (setting [7]), 0 (2×) and 4 and 2 (2×). Moreover, the Sum of parameters was 6 (4×) and 10 in data set [1] (setting [3]); 12 and 6 and 2 (2×) and 4 in data set [1] (TGLVP 6400 µg/g in 1 weight% carboxymethyl cellulose, dose 3200 µg, 15 min before irradiation); 4 and 12 and 6 (2×) and 8 in data set [1] (setting [6]). In data set [1] (dose of 1600 µg, rats), the radioprotective effect result is listed as “maximum radioprotective effect”. Also, the “radioprotection to the mucosa as compared with the controls” value in data set [1] (dose of 3200, 1600 or 800 µg, irradiation 15 or 30 min after administration, summary of Tables I-V) is listed as “gave radioprotection to the mucosa”. Moreover, the “radioprotection: effect of higher dose or longer time” value in data set [1] (increase of dose from 1600 µg to 3200 µg, or of time from 15 to 30 min, compared with 1600 µg at 15 min, Tables I-IV) is listed as “does not seem to give a better result”. The “protection, from body weight values” in data set [1] (increasing the dose from 800 µg to 1600 µg, 15 min before irradiation, Table V) was “improved protection”. The circulatory changes entry in data set [2] (128 µg in 0.9% by weight hydroxypropyl cellulose solution) was “without changes”; in data set [2] (128 µg in 1.2% by weight hydroxyethyl cellulose solution), “no circulatory changes”; in data set [2] (256 µg in 0.9% by weight hydroxypropyl cellulose solution) it was “without changes”. For the same molecule, the blood pressure result in data set [2] (256 µg in 1.2% by weight hydroxyethyl cellulose solution, at 75 and 90 minutes after application) is listed as “gave a rise in blood pressure”; in data set [2] (512 µg in 1.2% by weight hydroxyethyl cellulose solution, 30 and 45 minutes after application), “gave a rise in blood pressure”. For the same molecule, the pulse rate entry in data set [2] (256 µg in 1.2% by weight hydroxyethyl cellulose solution, at 5 minutes after application) is “decrease in pulse rate”; in data set [2] (512 µg in 1.2% by weight hydroxyethyl cellulose solution, 10-45 minutes after application) it was “bradycardia”. In data set [2] (512 µg in 0.9% by weight hydroxypropyl cellulose solution, 15-120 minutes after application), the “circulatory changes (pulse)” value is on record as “gave a bradycardia”. For the same molecule, the “systemic circulatory response in the form of blood pressure increase or lower pulse” value in data set [2] (800 µg rectally in 1% by weight sodium carboxymethyl cellulose (CMC)) is recorded as “no systemic circulatory response”; in data set [2] (1600 µg rectally in 1% by weight sodium carboxymethyl cellulose (CMC)), “no systemic circulatory response; also recorded: without general circulatory responses”; in data set [2] (3200 µg rectally in 1% by weight sodium carboxymethyl cellulose (CMC)), “caused blood pressure increase in several animals”.

Consider “Angiotensin II (DRVYIHPF; Angiotensin-2; UniProt P01019 25-32, looked up)”, for which the “changes in blood pressure or pulse rate” value in data set [2] (doses of 0.1 µg to 500 µg in 0.6% by weight hydroxyethyl cellulose solution, even at the highest dose level, 75 or 140 minutes of follow-up) is “no significant changes in blood pressure or pulse rate”.

Consider Angiotensin II, for which the “function of the gel” value in data set [1] (250 µg per g of 0.6% by weight hydroxyethyl cellulose in sterile deionised water) was “found to function as intended”. Moreover, in data set [1] (dose of 125 µg, irradiation 15 min after administration, Table VIII), the “cases with radioprotection to the mucosa, as compared with the controls” value is 5 out of 6.

Consider arginine-vasopressin [AVP], for which the “function of the gel” value in data set [1] (10 µg per g of 0.2% by weight carboxypolymethylene in sterile deionised water) is given as “found to function as intended”. For the same molecule, the “radioprotection to the mucosa as compared with the controls” value in data set [1] (dose of 10 µg, irradiation 10 min after administration, Table VI, histological grading only) is recorded as “gave radioprotection to the mucosa”. Besides, the “influence on blood pressure” value in data set [2] (25 µg in 0.2% by weight carboxypolymethylene solution, pulse rate not measured) is reported as “without any significant influence on blood pressure”; in data set [2] (50 µg in 0.2% by weight carboxypolymethylene solution, pulse rate not measured), “without any significant influence on blood pressure”.

For the molecule `NC[C@H](O)c1ccc(O)c(O)c1` [norepinephrine], the “function of the gel” value in data set [1] (2 mg per g of 0.6% by weight hydroxyethyl cellulose in sterile deionised water) is recorded as “found to function as intended”. The “cases with radioprotection to the mucosa, as compared with the controls” value in data set [1] (dose of 1 mg, irradiation 15 min after administration, Table IX) is recorded as 5 out of 6.
